Experimental data published in patent publication US20080070909A1, “ENANTIOMERICALLY PURE BETA AGONISTS, MANUFACTURING AND USE THEREOF” (priority 2006, published 2008).

melting point: 168 °C
Structure (SMILES): CCC1(CC)OC(=O)N(CCC(C)(C)NCC(O)c2ccc(O)c(NS(C)(=O)=O)c2)c2ccccc21 (stereo not shown) [Example 10, N-(5-{2-[3-(4,4-diethyl-2-oxo-4H-benzo[d][1,3]oxazin-1-yl)-1,1-dimethyl-propylamino]-1-hydroxy-ethyl}-2-hydroxy-phenyl)-methanesulphonamide]
